Numbered stars: 1 amine (or outer) side, 2 acyl side, 3 side chain; on linkers, the order of the positions; unused ones are H or OH. Square brackets hold non-standard residues; d marks the D form. Peptide text beside a SMILES is read from it. X1 = NCCCC[C@H](N)CN([C@@H](CCCCN)C(=O)[*:2])[*:1]; Tle = CC(C)(C)[C@H](N)C(=O)O
Legend:
[1] = biological target: Neurotensin receptor type 1 (Rattus norvegicus, UniProt P20789); assay: Displacement of [125I]neurotensin from rat brain NTR1
[2] = Half life in C57BL/6 mouse at 30 mg/kg, po by LC-MS/MS analysis; type: ADME, organism-based; conditions: in vivo
[3] = AUC in C57BL/6 mouse at 30 mg/kg, po by LC-MS/MS analysis; type: ADME, organism-based; conditions: in vivo
[4] = Oral bioavailability in C57BL/6 mouse at 30 mg/kg by LC-MS/MS analysis; type: ADME, organism-based; conditions: in vivo
[5] = Cmax in C57BL/6 mouse at 30 mg/kg, po by LC-MS/MS analysis; type: ADME, organism-based; design: dose 30 mg/kg, route oral; conditions: in vivo
[6] = Ratio of drug level in brain to plasma of C57BL/6 mouse at 30 mg/kg, po measured after 1 hr by LC-MS/MS analysis; type: ADME, organism-based
[7] = Volume of distribution in C57BL/6 mouse at 5 mg/kg, iv by LC-MS/MS analysis; type: ADME, organism-based; conditions: in vivo
[8] = Clearance in C57BL/6 mouse at 5 mg/kg, iv by LC-MS/MS analysis; type: ADME, organism-based; conditions: in vivo
[9] = biological target: T1, Neurotensin receptor type 1 (Homo sapiens, UniProt P30989); assay: Allosteric modulation of human GFP-fused PK-tagged Gq-coupled NTR1 expressed in CHOK1 cells assessed as induction of NT (8 to 13) peptide-mediated beta-arrestin recruitment measured after 90 mins by pathhunter assay; type: cell-based
T1 sequence (P30989 whole entry, the tested form may be a part): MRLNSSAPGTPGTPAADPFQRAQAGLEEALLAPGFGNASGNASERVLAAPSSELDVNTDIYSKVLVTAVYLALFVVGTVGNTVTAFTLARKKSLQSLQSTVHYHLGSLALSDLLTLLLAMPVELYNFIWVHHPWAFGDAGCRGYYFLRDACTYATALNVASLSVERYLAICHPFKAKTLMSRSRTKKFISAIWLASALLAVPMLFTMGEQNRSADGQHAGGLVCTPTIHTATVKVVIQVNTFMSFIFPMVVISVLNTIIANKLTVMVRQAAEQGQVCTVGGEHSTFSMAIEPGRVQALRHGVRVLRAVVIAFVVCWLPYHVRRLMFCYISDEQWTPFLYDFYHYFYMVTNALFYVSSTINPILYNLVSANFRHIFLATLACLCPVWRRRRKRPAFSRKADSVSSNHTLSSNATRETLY

[10] = Ratio of drug level in brain to plasma of Sprague-Dawley rat at 30 mg/kg, po measured after 1 hr by LC-MS/MS analysis; type: ADME, organism-based; conditions: brain and plasma, read-out: BPR
[11] = Toxicity in DAT knockout C57BL/6J mouse assessed as hypotension at 10 to 100 mg/kg, po; type: organism-based; conditions: in vivo
[12] = AUC in Sprague-Dawley rat at 30 mg/kg, po by LC-MS/MS analysis; type: ADME, organism-based; conditions: in vivo
[13] = Toxicity in DAT knockout C57BL/6J mouse assessed as hypothermia at 10 to 100 mg/kg, po; type: organism-based; conditions: in vivo
[14] = Half life in Sprague-Dawley rat at 30 mg/kg, po by LC-MS/MS analysis; type: ADME, organism-based; conditions: in vivo
[15] = Oral bioavailability in Sprague-Dawley rat at 30 mg/kg by LC-MS/MS analysis; type: ADME, organism-based; conditions: in vivo
[16] = Toxicity in DAT knockout C57BL/6J mouse assessed as hypotension at 1 mg/kg, ip; type: organism-based; conditions: in vivo
[17] = Toxicity in DAT knockout C57BL/6J mouse assessed as hypothermia at 1 mg/kg, ip; type: organism-based; conditions: in vivo
[18] = biological target: T1, Neurotensin receptor type 1; assay: Positive allosteric modulation of recombinant human NTR1 expressed in HEK293 cells assessed as increase in [125I]-neurotensin binding measured after 45 mins; type: cell-based
[19] = Toxicity in DAT knockout C57BL/6J mouse assessed as hypothermia at 12 mg/kg, ip; type: organism-based; conditions: in vivo
[20] = Ratio of drug level in brain to plasma of Sprague-Dawley rat at 30 mg/kg, po measured after 4 to 8 hrs by LC-MS/MS analysis; type: ADME, organism-based; conditions: brain and plasma, read-out: BPR
[21] = Toxicity in DAT knockout C57BL/6J mouse assessed as hypotension at 12 mg/kg, ip; type: organism-based; conditions: in vivo
[22] = Clearance in Sprague-Dawley rat at 5 mg/kg, iv by LC-MS/MS analysis; type: ADME, organism-based; conditions: in vivo

Chain of Neurotensin receptor type 1 (Rattus norvegicus, UniProt P20789) (P20789 whole entry): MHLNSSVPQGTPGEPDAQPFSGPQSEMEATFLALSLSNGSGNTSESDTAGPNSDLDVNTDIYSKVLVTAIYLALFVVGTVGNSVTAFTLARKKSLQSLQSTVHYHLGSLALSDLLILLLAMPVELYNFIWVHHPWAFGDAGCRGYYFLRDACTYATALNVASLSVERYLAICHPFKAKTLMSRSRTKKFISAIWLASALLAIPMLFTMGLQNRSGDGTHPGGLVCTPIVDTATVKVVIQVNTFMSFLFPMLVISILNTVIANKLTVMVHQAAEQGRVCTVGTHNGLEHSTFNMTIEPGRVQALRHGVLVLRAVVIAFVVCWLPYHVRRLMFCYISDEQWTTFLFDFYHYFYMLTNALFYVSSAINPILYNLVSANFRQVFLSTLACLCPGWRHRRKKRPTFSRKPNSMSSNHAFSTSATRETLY

With `COc1cccc(OC)c1-c1cc(C(=O)NC2(C(=O)O)C3CC4CC(C3)CC2C4)nn1-c1ccnc2cc(Cl)ccc12` (stereo not drawn) [REMINERTANT] the IC50 [1] was 82 nM.
In the case of `COc1ccccc1C1CCN(c2nc(C3(C)CC3)nc3ccc(N(C)CCO)cc23)CC1.Cl`, the t1/2 [2] is reported as 2.9 h, the AUC [3] is reported as 3324 ng·h/mL and the F ([4]; mouse) is reported as 52%. It also gave a Cmax [5] of 627 ng/mL and a BPR [6] of 0.35.
Work on `COc1ccccc1C1CCN(c2nc(C3(C)CC3)nc3ccc(N(C)CCO)cc23)CC1` yielded a Vd [7] of 7.68 L/kg, a clearance [8] of 79.4 mL/min/kg and an EC50 [9] of 98 nM.
With `COc1ccccc1C1CCN(c2nc(C3(F)CC3)nc3ccc(N(C)CCO)cc23)CC1.Cl` the Kp at 1 h [10] was 0.98, the Activity [11] was “Non-Toxic” and the t1/2 [2] was 5.28 h. For the same compound, the AUC [12] was 2693 ng·h/mL, the Activity [13] was “Non-Toxic” and the t1/2 [14] was 2.23 h. For the same compound, the AUC [3] was 4824 ng·h/mL, the bioavailability ([4]; C57BL/6, mouse) was 45% and the bioavailability [15] was 48%. It also gave a BPR [6] of 0.54.
With `CCOC(=O)[C@H](CC(C)C)NC(=O)[C@@H](NC(=O)[C@H](Cc1c[nH]c2ccccc12)NC(=O)[C@@H]1CCCN1C(=O)[C@H](CCCCN)NC[C@@H](N)CCCCN)C(C)(C)C` (H-[X1]PW[Tle]L-OEt) the Activity [16] was “Toxic” and the Activity [17] was “Toxic”.
In the case of `COc1ccccc1C1CCN(c2nc(C3(F)CC3)nc3ccc(N(C)CCO)cc23)CC1`, the EC50 [18] is reported as 140 nM, the Activity [19] is reported as “Non-Toxic” and the Kp [20] is reported as 0.98. The clearance [8] was 44.8 mL/min/kg, the Activity [21] was “Non-Toxic” and the clearance [22] was 81 mL/min/kg. For the same compound, the EC50 [9] was 340 nM.

From ChEMBL document CHEMBL4373709 (J Med Chem, 2019)
